# Test results taken from US20210332139A1, “MODULATION OF LEUKOCYTE ACTIVITY IN TREATMENT OF NEUROINFLAMMATORY DEGENERATIVE DISEASE” (Leuvas Therapeutics, priority 2013, published 2021).
# Columns and labels:
# [1] = system: human neutrophils; assay: Rapid human neutrophil adhesion to ICAM-1, inhibition by bocMLF and PTx; assay type: cell-based
# Description: It is known that one of the receptors for Aβ is the receptor for fMLP, formylpeptide chemotactic receptor (FPR). To evaluate the contribution of this GPCR receptor on Aβ-dependent neutrophil adhesion, we inhibited its function using boc-MLF, a formyl-peptide chemotactic receptor antagonist. Human neutrophils were incubated for 2 minutes with buffer (control) or with oligomeric Aβ. 0.1 μM fMLP was used as a positive control. Values are expressed as the mean counts of bound cells in 0.2 mm^2 from three independent experiments in duplicate. Error bars represent SD. […] To exclude the possibility that rapid adhesion triggering was a consequence of a generic plasma membrane alteration due to the lipophilic nature of Aβ, we evaluated rapid adhesion in lymphocytes, which are known to lack fMLP receptors.
# [2] = system: human primary PMNs; assay: Static adhesion of human primary PMNs to ICAM-1 with signaling inhibitors; assay type: cell-based; details: for Adherent hPMNs to ICAM-1, n.t. (resting), Mean / Adherent hPMNs to ICAM-1, fMLP, Mean / Adherent hPMNs to ICAM-1, Aβ oligo, Mean: 30 min; for Adherent hPMNs to ICAM-1, fMLP, Mean: then 50 nM fMLP 1 min; for Adherent hPMNs to ICAM-1, Aβ oligo, Mean: then 10 μM Aβ 1 min; for Blockade of Aβ-induced adhesion of human neutrophils: result in words
# Description: As a model system, human primary PMNs were isolated form healthy donors stimulated to very rapid adhesion to purified human ICAM-1, ligand for the β2 integrins LFA-1 and Maci. fMLP (the classical chemoattractant) was the positive control. […] PMNs were treated for 30 min. with different concentrations of inhibitors followed by stimulation for 1 min with 50 nM fMLP or with 10 μM Aβ. The number of adherent cells was quantified by computer-assisted evaluation. Statistical analysis was SD.
# [3] = system: neutrophils; assay: Rapid adhesion of neutrophils, soluble versus fibrillary Aβ1-42; assay type: cell-based; details: 30 μM, mean+/−SD
# Source text: Although two-times less efficient than the soluble form, fibrillary Aβ triggered a significant increase of rapid neutrophil adhesion on both ICAM-1 and fibrinogen (Table 8; data are expressed as the mean+/−SD of bound cells in 0.2 mm^2 from three independent experiments made in duplicate).
# [4] = system: human neutrophils; assay: Isoluminol chemiluminescence ROS assay, human neutrophils; assay type: cell-based; details: result in words
# Description: One of the mechanisms of neuronal damage by beta-amyloid in Alzheimer's disease is the generation of reactive oxygen species (ROS). We determined whether Aβ1-42 oligomers induce ROS production in neutrophils by using a chemiluminescence assay.
# (§1) Isoluminol-based chemiluminescence assays were performed in HGCa in the presence of horseradish peroxidase (HRP) and isoluminol (both from Sigma-Aldrich) in a temperature-controlled Multilabel Count Victor X5 (Perkin Elmer). Assays were run in dark 96 well plates precoated with 250 μg/ml human fibrinogen in HGCa containing (final concentration): 100 μM isoluminol and 8 U/ml HRP. After addition of 1×10^5 human neutrophils or 7.5×10^5 mouse neutrophils, plates were left at 37° C. for 5-10 min and the reaction started by addition of the stimulus. Light emission was recorded every minute.
# (§2) We used the chemotactic peptide fMLP as positive control. […] Data are mean+/−SD for three independent experiments.
# [5] = system: mouse neutrophils; assay: Isoluminol chemiluminescence ROS assay, mouse neutrophils; assay type: cell-based; details: mean+/−SD
# Description: as §1, §2
# Data are mean+/−SD counts per second.
# [6] = system: Bend.3 endothelial cell line; assay: Adhesion molecule expression on Bend.3 endothelial cells (immunofluorescence); assay type: cell-based, mouse; design: key: −: VCAM-1 and selectins were not expressed (indicated by -, Table 2); constitutively expressed at low levels on endothelial cells (indicated by +/−, some vessels were positive for ICAM-1, Table 2); an increase of ICAM-1 expression (indicated by +, Table 2); details: Bend.3 cells, 25 U/ml TNFα, 18 h, positive control
# Description: We performed in vitro experiments to study the effect of soluble Aβ1-42 oligomers on the endothelial cell line Bend.3, derived from mouse cerebral cortex purchased by ATCC& Cell Biology Collection (CRL-2299TM).
# Briefly, Bend.3 were cultured at a concentration of 20×10^3/ml on a glass coverslip in 24-well plates containing DMEM supplemented with 10% Fetal Calf Serum (FCS). Cells were stimulated with 10 μM Aβ 1-42, for 18 h in DMEM with 1% FCS. […] positive control, cells were treated with 25 U/ml of TNFα for 18 h in DMEM with 1% FCS. Bend.3 were rinsed with PBS and fixed with 4% PFA for 10 minutes. Cells were washed with PBS incubated with blocking buffer for 1 h at RT° C. Primary antibodies were diluted in 1% Bovine Serum Albumin (BSA) PBS. Cells were incubated overnight at 4° C. with 50 μg/ml anti-VCAM (hybridoma MK2.7), 10 μg/ml anti-ICAM (hybridoma YN1.7), 0.5 μg/ml anti-CD31 (370700, Invitrogen), 5 μg/ml anti-E-selectin (hybridoma RME-1) and 1.5 μg/ml anti-P-selectin (CD62P, BD Pharmigen). The day after, cells were rinsed 2 times with PBS and then incubated with 7.5 μg/ml biotinylated secondary antibody (rabbit anti-rat, T0226, VectorLab) for 1 h at RT° C. Cells were rinsed 2 times with PBS and incubated with 25 μg/ml Avidin-TexasRed (A2006, Vector Lab) for 1 h at RT° C. in the dark. After rinsing in PBS, cells were incubated with 1 μg/ml Dapi (D9542, Sigma-Aldrich, St. Louis, Mo.), for 5 minutes in the dark. Finally, glass coverslip was transferred on glass slides and mounted with Dako medium (S3023, DAKO NORTH AMERICA, Carpinteria, Calif.). Glass slides were kept at 4° C. in the dark and acquired by LEICA fluorescence microscopy (DM6000B, LEICA, Germany).
# We analyzed the expression of VCAM-1, ICAM-1, E- and P-selectin on Bend.3 after Aβ1-42 oligomers stimulation. TNF-α stimulation, which is well known to up-regulate the adhesion molecules expression, was used as positive control. We evaluated a dose-response effect of Aβ1-42 soluble oligomers on Bend.3 cells, ranging from 1 to 10 μM after 6 or 18 hours of treatment. After 18 h of treatment with 10 μM Aβ we observed a significant up-regulation of […] compared to non-stimulated control cells (CTRL) (Table 2). […] ICAM-1 was constitutively expressed at low levels on endothelial cells (indicated by +/−, some vessels were positive for ICAM-1, Table 2), but 18 h treatment with Aβ1-42 led to an increase of ICAM-1 expression (indicated by +, Table 2).
compound,measurement,setting,value
bocMLF,Neutrophil adhesion to ICAM-1 after inhibitor pre-treatment,"[1]; buffer (control), no stimulus",17.3 ± 6.6 bound cells in 0.2 mm^2
same,Neutrophil adhesion to ICAM-1 after inhibitor pre-treatment,[1]; stimulated 2 minutes with oligomeric Aβ,74.8 ± 25.5 bound cells in 0.2 mm^2
same,Neutrophil adhesion to ICAM-1 after inhibitor pre-treatment,[1]; stimulated with 0.1 μM fMLP,69 ± 26.5 bound cells in 0.2 mm^2
same,"Adherent hPMNs to ICAM-1, n.t. (resting), Mean",[2]; inhibitor 100 μM,20.1
same,"Adherent hPMNs to ICAM-1, fMLP, Mean",[2]; inhibitor 100 μM,55.0
same,"Adherent hPMNs to ICAM-1, Aβ oligo, Mean",[2]; inhibitor 100 μM,81.8
same,Blockade of Aβ-induced adhesion of human neutrophils,[2],inhibits
"N#CC[C@H](C1CCCC1)n1cc(-c2ncnc3[nH]ccc23)cn1 [Ruxolitinib, ruxolitinib]","Adherent hPMNs to ICAM-1, n.t. (resting), Mean",[2]; inhibitor 100 μM,17.0
same,"Adherent hPMNs to ICAM-1, fMLP, Mean",[2]; inhibitor 100 μM,243.8
same,"Adherent hPMNs to ICAM-1, Aβ oligo, Mean",[2]; inhibitor 100 μM,244.5
N#C/C(=C/c1ccc(O)c(O)c1)C(=O)NCc1ccccc1 [AG490],"Adherent hPMNs to ICAM-1, n.t. (resting), Mean",[2]; inhibitor 200 μM,23.2
same,"Adherent hPMNs to ICAM-1, fMLP, Mean",[2]; inhibitor 200 μM,274.5
same,"Adherent hPMNs to ICAM-1, Aβ oligo, Mean",[2]; inhibitor 200 μM,258.6
same,Blockade of Aβ-induced adhesion of human neutrophils,[2],can block
NC(=O)c1cccc(-c2cc(Nc3ccc(OC(F)(F)F)cc3)ncn2)c1 [GNF-2],"Adherent hPMNs to ICAM-1, n.t. (resting), Mean",[2]; inhibitor 100 μM,25.2
same,"Adherent hPMNs to ICAM-1, fMLP, Mean",[2]; inhibitor 100 μM,144.2
same,"Adherent hPMNs to ICAM-1, Aβ oligo, Mean",[2]; inhibitor 100 μM,115.5
same,Blockade of Aβ-induced adhesion of human neutrophils,[2],can block
"Cc1nc(Nc2ncc(C(=O)Nc3c(C)cccc3Cl)s2)cc(N2CCN(CCO)CC2)n1 [Dasatinib, dasatinib]","Adherent hPMNs to ICAM-1, n.t. (resting), Mean",[2]; inhibitor 20 μM,24.9
same,"Adherent hPMNs to ICAM-1, fMLP, Mean",[2]; inhibitor 20 μM,230.8
same,"Adherent hPMNs to ICAM-1, Aβ oligo, Mean",[2]; inhibitor 20 μM,227.5
Fib Abeta: fibrillary form of Aβ1-42 peptide,Rapid adhesion to Fibrinogen,[3],171 ± 21.8 bound cells in 0.2 mm^2
same,Rapid adhesion to ICAM-1,[3],457.3 ± 45.54 bound cells in 0.2 mm^2
"Oc1cc(O)cc(/C=C/c2ccc(O)c(O)c2)c1 [Piceatannol, piceatannol]","Adherent hPMNs to ICAM-1, n.t. (resting), Mean",[2]; inhibitor 50 μM,21.0
same,"Adherent hPMNs to ICAM-1, fMLP, Mean",[2]; inhibitor 50 μM,218.7
same,"Adherent hPMNs to ICAM-1, Aβ oligo, Mean",[2]; inhibitor 50 μM,276.1
c1ccc2c(c1)[I+]c1ccccc1-2 [DPI],Effect on fMLP and Aβ1-42 ROS responses,[4],suppressed
C[C@@H]1CCN(C(=O)CC#N)C[C@@H]1N(C)c1ncnc2[nH]ccc12 [CP-690550],"Adherent hPMNs to ICAM-1, n.t. (resting), Mean",[2]; inhibitor 200 μM,22.1
same,"Adherent hPMNs to ICAM-1, fMLP, Mean",[2]; inhibitor 200 μM,209.6
same,"Adherent hPMNs to ICAM-1, Aβ oligo, Mean",[2]; inhibitor 200 μM,172.4
same,Blockade of Aβ-induced adhesion of human neutrophils,[2],can block
TNF-a,ROS generation (chemiluminescence),[5]; 1 min,38 ± 20 counts per second
same,ROS generation (chemiluminescence),[5]; 2 min,62 ± 21 counts per second
same,ROS generation (chemiluminescence),[5]; 3 min,102 ± 28 counts per second
same,ROS generation (chemiluminescence),[5]; 4 min,136 ± 26 counts per second
same,ROS generation (chemiluminescence),[5]; 5 min,187 ± 14 counts per second
same,CD31 expression (endothelial cell marker),[6],+
same,E-sel expression,[6],+
same,ICAM-1 expression,[6],+
same,P-sel expression,[6],+
same,VCAM-1 expression,[6],+
COc1cc2ncnc(Nc3ccc(O)c(Br)c3)c2cc1OC [WHI-P154],"Adherent hPMNs to ICAM-1, n.t. (resting), Mean",[2]; inhibitor 100 μM,23.5
same,"Adherent hPMNs to ICAM-1, fMLP, Mean",[2]; inhibitor 100 μM,207.8
same,"Adherent hPMNs to ICAM-1, Aβ oligo, Mean",[2]; inhibitor 100 μM,218.8
same,Blockade of Aβ-induced adhesion of human neutrophils,[2],can block
Cc1cnc(Nc2ccc(OCCN3CCCC3)cc2)nc1Nc1cccc(S(=O)(=O)NC(C)(C)C)c1 [TG101348],"Adherent hPMNs to ICAM-1, n.t. (resting), Mean",[2]; inhibitor 100 μM,20.1
same,"Adherent hPMNs to ICAM-1, fMLP, Mean",[2]; inhibitor 100 μM,147.2
same,"Adherent hPMNs to ICAM-1, Aβ oligo, Mean",[2]; inhibitor 100 μM,134.8
same,Blockade of Aβ-induced adhesion of human neutrophils,[2],can block
"COc1cc(Nc2c(C#N)cnc3cc(OCCCN4CCN(C)CC4)c(OC)cc23)c(Cl)cc1Cl [Bosutinib, bosutinib]","Adherent hPMNs to ICAM-1, n.t. (resting), Mean",[2]; inhibitor 100 μM,19.3
same,"Adherent hPMNs to ICAM-1, fMLP, Mean",[2]; inhibitor 100 μM,98.2
same,"Adherent hPMNs to ICAM-1, Aβ oligo, Mean",[2]; inhibitor 100 μM,95.1
"C=CC(=O)N1CCC[C@@H](n2nc(-c3ccc(Oc4ccccc4)cc3)c3c(N)ncnc32)C1 [Ibrutinib, ibrutinib]","Adherent hPMNs to ICAM-1, n.t. (resting), Mean",[2]; inhibitor 100 μM,21.9
same,"Adherent hPMNs to ICAM-1, fMLP, Mean",[2]; inhibitor 100 μM,80.0
same,"Adherent hPMNs to ICAM-1, Aβ oligo, Mean",[2]; inhibitor 100 μM,78.0
"Cc1ccc(NC(=O)c2ccc(CN3CCN(C)CC3)cc2)cc1Nc1nccc(-c2cccnc2)n1 [Imatinib, imatinib]","Adherent hPMNs to ICAM-1, n.t. (resting), Mean",[2]; inhibitor 100 μM,23.5
same,"Adherent hPMNs to ICAM-1, fMLP, Mean",[2]; inhibitor 100 μM,124.9
same,"Adherent hPMNs to ICAM-1, Aβ oligo, Mean",[2]; inhibitor 100 μM,109.3
same,Blockade of Aβ-induced adhesion of human neutrophils,[2],can block
